Laboratory results reported in patent publication US20060199857A1, “Therapeutic agents” (ASTRAZENECA UK LIMITED, priority 2003, published 2006).

Target: T1, human PPAR alpha (Homo sapiens, UniProt Q07869)
T1 sequence (Q07869 1-468): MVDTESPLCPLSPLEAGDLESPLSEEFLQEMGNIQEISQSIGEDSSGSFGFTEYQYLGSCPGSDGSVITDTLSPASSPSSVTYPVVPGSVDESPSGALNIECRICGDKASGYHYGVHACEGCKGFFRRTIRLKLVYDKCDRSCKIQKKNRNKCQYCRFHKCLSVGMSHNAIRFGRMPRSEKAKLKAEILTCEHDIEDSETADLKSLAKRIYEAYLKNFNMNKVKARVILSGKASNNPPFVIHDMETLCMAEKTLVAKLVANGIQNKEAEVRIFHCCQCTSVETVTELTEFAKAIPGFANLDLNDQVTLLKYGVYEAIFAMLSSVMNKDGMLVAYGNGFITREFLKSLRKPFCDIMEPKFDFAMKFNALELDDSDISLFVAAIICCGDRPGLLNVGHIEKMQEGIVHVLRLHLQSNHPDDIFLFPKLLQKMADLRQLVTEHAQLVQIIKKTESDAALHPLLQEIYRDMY
Test: PPAR alpha assay as described in WO03/051821
Type: cell-based
Details: assay described in WO03/051821 (incorporated by reference)
Experimental: The compounds of the invention were tested in the assays described in WO03/051821 which is incorporated herein by reference.

- EC50: 780 nM
Structure (SMILES): O=C(c1ccccc1)c1ccc(OCCc2ccc(CC(SCCc3ccc(O)cc3)C(=O)O)cc2)cc1 (stereo not shown) [Example 7, 3-{4-[2-(4-Benzoylphenoxy)ethyl]phenyl}-2-{[2-(4-hydroxyphenyl)ethyl]thio}propanoic acid]
